Patent US7973062B2, “Androgen receptor-ablative agents” (The Ohio State University Research Foundation, priority 2008, dated 2011)
Entries after “also recorded” stand apart in the source; their conditions may differ.

What was measured:
Type in all cases: cell-based
[1] = system: androgen receptor (AR) expression; assay: Western blot analysis of AR protein expression in LNCaP cells
Description: RT-PCR and Immunoblotting. LNCaP cells were cultured in T25 flasks at an initial density of 1×10^6 cells/flask. After exposure to various compounds at the indicated conditions, cells were subject to total RNA isolation by using an RNeasy mini-kit (QIAGEN, Valencia, Calif.). RNA concentrations were determined by measuring absorption at 260 nm in a spectrophotometer. Aliquots of 6 μg of total RNA from each sample were reverse-transcribed to cDNA using an Omniscript RT Kit (QIAGEN) according to the manufacturer's instructions, using suitable primers.
For immunoblotting, protein extracts were prepared by M-PER Mammalian Protein Extraction Reagent (Pierce, Rockford, Ill.) with freshly added 1% phosphatase and protease inhibitor cocktails (Calbiochem) followed by centrifugation at 13,000×g for 10 min. Supernatant was collected and protein concentration was determined by protein assay reagent (Bio-Rad, CA). Protein extracts were then suspended in 2×SDS sample buffer, and subject to 10% SDS-polyacrylamide gels. After electrophoresis, proteins were transferred to nitrocellulose membranes using a semidry transfer cell. The transblotted membrane was washed twice with Tris-buffered saline containing 0.1% Tween 20 (TBST). After blocking with TBST containing 5% nonfat milk for 1 h, the membrane was incubated with mouse monoclonal anti-AR (Santa Cruz) or anti-β-actin (MP Biomedicals) antibodies (diluted 1:1000) in 1% TBST nonfat milk at 4° C. overnight. After incubation with the primary antibody, the membrane was washed three times with TBST for a total of 30 min, followed by incubation with horseradish peroxidase conjugated goat anti-mouse IgG (diluted 1:2500) for 1 h at room temperature. After three thorough washes with TBST for a total of 30 min, the immunoblots were visualized by enhanced chemiluminescence.

[2] = system: AR promoter; assay: AR promoter-luciferase reporter assay in transiently transfected LNCaP cells; conditions: compounds at 10 μM, 48 h, ciglitazone and Δ2CG at 20 μM
Source text: Transfection and Luciferase assay. The 3.6-kilobase AR promoter-linked reporter plasmid p-3600ARCAT was kindly provided by Dr. Chawnshang Chang (University of Rochester Medical Center, Rochester, N.Y.). The AR promoter gene (−3600 to +550) encompassing the transcription start site was isolated by using PCR to generate hAR-luc with suitable primers. The fragment was subcloned into the pGL3 luciferase reporter vector (Promega, Madison, Wis.) at KpnI and BglII in the multiple cloning site. The PPRE-x3-TK-Luc reporter vector contains three copies of the PPAR-response element (PPRE) upstream of the thymidine kinase promoter-luciferase fusion gene and was kindly provided by Dr. Bruce Spiegelman (Harvard University, Cambridge, Mass.). The pCMVSp1 plasmid was purchased from Origene Technologies, Inc. (Rockville, Md.). LNCaP or PC3 cells were transfected with 5 μg of individual plasmids in an Amaxa Nucleofector using a cell line-specific nucleofector kit according to the manufacturer's protocol (Amaxa Biosystems, Cologne, Germany), and then seeded in 6-well plates at 5×10^5 cells per well for 48 h. The transfection efficiency was determined to be 70-80% by transfecting cells with 2 μg of pmaxGFP plasmid, followed by fluorescence microscopy to measure GFP expression. For each transfection, herpes simplex virus thymidine kinase promoter-driven Renilla reniformis luciferase was used as an internal control for normalization.
For the reporter gene assay, after transfection, cells were cultured in 24-well plates in 10% FBS-supplemented RPMI 1640 medium for 48 h, subject to different treatments for the indicated times, collected, and lysed with passive lysis buffer (Promega). Fifty-μl aliquots of the lysates were added to 96-well plates, and luciferase activity was monitored after adding 100 μl of luciferase substrate (Promega) each well by using a MicroLumatPlus LB96V luminometer (Berthold Technologies, Oak Ridge, Tenn.) with the WinGlow software package. All transfection experiments were carried out in six replicate.

[3] = system: LNCaP and PC-3 cells; assay: Cell counting assay for cell proliferation, LNCaP versus PC-3; conditions: Coulter counter (FIG. 5B)
Description: Cell Counting and Cell Viability Assay. LNCaP or PC-3 cells were placed in six-well plates (2.5×10^5 cells/well) in 10% FBS-supplemented RPMI 1640 for 24 h, and treated with various concentrations of compound 12 for additional 24, 48 and 72 h. Cells were then trypsinized and counted by using a Coulter counter (Model Z1 D/T, Beckman Coulter, Fullerton, Calif.). Cell viability was assessed by using the 3-(4,5-dimethylthiazol-2-yl)-2,5-diphenyl-2H-tetrazolium bromide (MTT) assay in six replicates in 96-well plates. LNCaP or PC-3 cells were seeded at 6000 cells per well in 10% FBS-supplemented RPMI 1640 for 24 h, followed by treatments with various compounds in 5% FBS-supplemented RPMI 1640 at the indicated concentrations. Controls received DMSO at a concentration equal to that in drug-treated cells. After the end of incubation, MTT (0.5 mg/ml) in 10% FBS-supplemented RPMI 1640 was added to each well, and cells were incubated at 37° C. for 2 hours. Medium was removed and the reduced MTT dye was solubilized in DMSO (200 μl/well). Absorbance was determined at 570 nm by a 96-well plate reader.

[4] = system: LNCaP cells; assay: Flow cytometric cell cycle analysis in LNCaP cells; conditions: 72 h
Description: Cell Cycle Analysis. LNCaP cells were seeded in 6-well plates ([…]) and treated with different concentrations of compound 12 for 72 h. After extensive washing with PBS, cells were trypsinized followed by fixation in ice-cold 80% ethanol at 4° C. overnight. Cells were then centrifuged for 5 min at 1500×g at room temperature, and stained with propidium iodide (50 μg/ml) and RNase A (100 units/ml) in PBS. Cell cycle phase distributions were determined on a FACScort flow cytometer and analyzed by the ModFitLT V3.0 program.

[5] = system: PARP cleavage, caspase 3 and caspase 7 activation; assay: Western blot of apoptosis-related biomarkers in LNCaP cells; conditions: 72 h

CC1(CN2C(=O)S/C(=C\c3ccc(O)c(C(F)(F)F)c3)C2=O)CCCCC1 [Compound 12, 5-(4-Hydroxy-3-trifluoromethyl-benzylidene)-3-(1-methyl-cyclohexylmethyl)-thiazolidine-2,4-dione]
AR expression level after compound washed out of the medium ([1]; 5 μM, washout then drug-free medium (FIG. 6C)): rapidly restored | suppression of AR protein expression (in words) ([1]; 10% FBS, 72 h, Western blot): completely inhibited AR expression in LNCaP cells at low μM concentrations; also recorded: an-order-of-magnitude higher potency than ciglitazone | IC50 ([1]; 72-h exposure, Western blot (FIG. 4C), read-out: IC50 for suppressing AR expression): ~2 µM | suppression of AR promoter-luciferase activity / AR transcription (in words) [2]: optimal agents | potency in inhibiting proliferation of LNCaP cells compared to PC-3 cells [3]: at least twofold higher potency | cell cycle distribution [4]: dose-dependent increase in the sub-G1 population, accompanied by decreases in the G2/M phase | apoptosis-related biomarkers: PARP cleavage, proteolytic activation of caspase 3 and caspase 7 [5]: dose-dependent effects
